Experimental data: patent publication US20230265151A1, “GIP/GLP1 CO-AGONIST COMPOUNDS” (priority 2020, published 2023)
Read-outs that look alike come from different tables or passages of the source.

How the values were obtained:
Format in all cases: cell-based
[1] = biological target: T1, hGIPR (Homo sapiens, UniProt P48546); experiment: Functional cAMP formation (HTRF) in HEK-293 clonal cells expressing hGIPR, 0.1% bovine casein, without or with 1.0% human serum albumin; conditions: for Emax: read-out: hGIPR Emax, % ± SEM; for EC50: geometric mean, read-out: hGIPR EC50, nM (SEM, n)
T1 construct: expressed in transfected cells
T1 sequence (P48546 22-466): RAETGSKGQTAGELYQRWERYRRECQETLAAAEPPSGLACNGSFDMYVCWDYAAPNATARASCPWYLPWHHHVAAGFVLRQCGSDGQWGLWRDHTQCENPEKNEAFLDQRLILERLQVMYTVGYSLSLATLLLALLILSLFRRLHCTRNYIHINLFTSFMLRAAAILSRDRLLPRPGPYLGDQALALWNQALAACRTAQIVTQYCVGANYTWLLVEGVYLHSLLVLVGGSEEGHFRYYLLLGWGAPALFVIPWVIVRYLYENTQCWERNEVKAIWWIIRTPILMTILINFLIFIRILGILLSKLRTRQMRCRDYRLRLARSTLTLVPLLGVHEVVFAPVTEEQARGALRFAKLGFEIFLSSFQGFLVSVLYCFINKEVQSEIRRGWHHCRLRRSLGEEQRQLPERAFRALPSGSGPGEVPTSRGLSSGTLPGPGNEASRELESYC
Method in brief: (§1)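 Cells were stimulated with peptide for 30 min at 37° C, then lysed in buffer carrying cAMP-d2 and anti-cAMP Eu3+-cryptate for a competitive HTRF read after at least 60 min at room temperature. The 665/620 nm ratio was converted to nM cAMP against a standard curve.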

[2] = biological target: hGLP-1R (Homo sapiens, UniProt P43220); experiment: Functional cAMP formation (HTRF) in HEK-293 clonal cells expressing hGLP-1R, 0.1% bovine casein, without or with 1.0% human serum albumin; design: expressed in transfected cells; conditions: for EC50: geometric mean, read-out: hGLP-1R EC50, nM (SEM, n)
Chain of hGLP-1R (P43220 24-463): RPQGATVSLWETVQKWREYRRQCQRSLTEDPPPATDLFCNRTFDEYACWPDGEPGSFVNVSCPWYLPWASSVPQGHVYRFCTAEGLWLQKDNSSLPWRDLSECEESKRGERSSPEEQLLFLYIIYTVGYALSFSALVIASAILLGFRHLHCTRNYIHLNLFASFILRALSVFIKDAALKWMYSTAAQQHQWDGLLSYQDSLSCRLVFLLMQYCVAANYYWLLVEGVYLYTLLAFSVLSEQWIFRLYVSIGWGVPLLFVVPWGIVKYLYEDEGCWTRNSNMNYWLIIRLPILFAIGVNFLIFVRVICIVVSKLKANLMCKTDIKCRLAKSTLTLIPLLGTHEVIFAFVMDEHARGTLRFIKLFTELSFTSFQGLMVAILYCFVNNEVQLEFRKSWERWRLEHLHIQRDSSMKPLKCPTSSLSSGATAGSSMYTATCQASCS
Method in brief: as §1

[3] = biological target: T2, hGCGR (Homo sapiens, UniProt P47871); experiment: Functional cAMP formation (HTRF) in HEK-293 clonal cells expressing hGCGR, 0.1% bovine casein, without or with 1.0% human serum albumin; conditions: geometric mean, read-out: hGCGR EC50, nM (SEM, n)
T2 construct: expressed in transfected cells
T2 sequence (P47871 26-477): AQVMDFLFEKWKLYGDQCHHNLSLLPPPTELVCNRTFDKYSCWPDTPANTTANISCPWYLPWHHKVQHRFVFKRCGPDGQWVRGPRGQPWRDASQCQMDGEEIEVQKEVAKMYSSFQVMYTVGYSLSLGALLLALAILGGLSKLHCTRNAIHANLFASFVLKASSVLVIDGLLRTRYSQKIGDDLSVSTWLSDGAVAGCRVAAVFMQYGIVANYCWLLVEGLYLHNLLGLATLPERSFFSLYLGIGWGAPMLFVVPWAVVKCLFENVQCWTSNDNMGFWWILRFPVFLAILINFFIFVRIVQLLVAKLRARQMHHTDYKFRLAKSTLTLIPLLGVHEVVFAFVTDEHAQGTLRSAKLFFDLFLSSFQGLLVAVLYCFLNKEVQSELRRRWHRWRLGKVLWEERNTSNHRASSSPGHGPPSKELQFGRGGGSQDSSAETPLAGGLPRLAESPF
Method in brief: as §1

[4] = HEK293, 0.1% bovine casein and 1.0% human serum albumin, 37° C., percent of maximal response to GIP(1-42)NH2
[5] = HEK293, percent of maximal response to GIP(1-42)NH2, 37° C., 0.1% bovine casein, arithmetic mean
[6] = cAMP, incubated at 37° C., 0.1% bovine casein (no human serum albumin)
[7] = 0.1% bovine casein and 1.0% human serum albumin, 37° C.

| SMILES | Emax [1, 4] | Emax [1, 5] | EC50 [1, 6] | EC50 [2, 7] | Emax ([2]; HEK293, 0.1% bovine casein and 1.0% human serum albumin, 37° C., percent of maximal response to GLP-1(7-36)NH2, read-out: hGLP-1R Emax, % ± SEM) | EC50 [3, 7] | EC50 [3, 6] | EC50 [1, 7] | EC50 [2, 6] |
| --- | --- | --- | --- | --- | --- | --- | --- | --- | --- |
| CC[C@H](C)[C@H](NC(=O)[C@H](CC(C)C)NC(=O)[C@](C)(Cc1ccc(O)cc1)NC(=O)[C@@H](CCC(=O)O)NC(=O)[C@@H](NC(=O)[C@H](Cc1cccc2ccccc12)NC(=O)[C@H](CCC(=O)O)NC(=O)C(C)(C)NC(=O)[C@H](CCC(N)=O)NC(=O)[C@H](C)NC(=O)[C@H](CCCCNC(=O)COCCOCCNC(=O)COCCOCCNC(=O)CC[C@H](NC(=O)CCCCCCCCCCCCC(=O)O)C(=O)O)NC(=O)[C@H](CCCN)NC(=O)[C@H](CC(=O)O)NC(=O)[C@H](CC(C)C)NC(=O)[C@](C)(CC(C)C)NC(=O)[C@@H](NC(=O)[C@H](CO)NC(=O)[C@H](Cc1ccncc1)NC(=O)[C@H](CC(=O)O)NC(=O)[C@H](CO)NC(=O)[C@@H](NC(=O)[C@](C)(Cc1ccccc1F)NC(=O)[C@@H](NC(=O)CNC(=O)[C@H](CCC(=O)O)NC(=O)C(C)(C)NC(=O)[C@@H](N)Cc1ccc(O)cc1)[C@@H](C)O)[C@@H](C)O)[C@@H](C)CC)[C@@H](C)CC)C(=O)N[C@@H](CCC(=O)O)C(=O)NCC(=O)NCC(=O)N[C@@H](CCCCNC(=O)COCCOCCNC(=O)COCCOCCNC(=O)CC[C@H](NC(=O)CCCCCCCCCCCCC(=O)O)C(=O)O)C(=O)N[C@@H](CO)C(=O)N[C@@H](CO)C(=O)NCC(=O)N[C@@H](C)C(=O)N1CCC[C@H]1C(=O)N1CCC[C@H]1C(=O)N1CCC[C@H]1C(=O)N[C@@H](CO)C(N)=O [Example 66] | 90.6 ± 3.37% | 93.5 ± 1.39% | 0.0168 nM | 27 nM | 93 ± 2.36% | > 9950 nM | > 9950 nM |  |  |
| CC[C@H](C)[C@H](NC(=O)[C@H](CC(C)C)NC(=O)[C@](C)(Cc1ccc(O)cc1)NC(=O)[C@@H](CCC(=O)O)NC(=O)[C@@H](NC(=O)[C@H](Cc1ccccc1)NC(=O)[C@H](CCC(=O)O)NC(=O)C(C)(C)NC(=O)[C@H](CCC(N)=O)NC(=O)[C@H](C)NC(=O)[C@H](CCCCNC(=O)COCCOCCNC(=O)COCCOCCNC(=O)CC[C@H](NC(=O)CCCc1ccc(C(C)(C)C)cc1)C(=O)O)NC(=O)[C@H](CCCN)NC(=O)[C@H](CC(=O)O)NC(=O)[C@H](CC(C)C)NC(=O)[C@](C)(CC(C)C)NC(=O)[C@@H](NC(=O)[C@H](CO)NC(=O)[C@H](Cc1ccncc1)NC(=O)[C@H](CC(=O)O)NC(=O)[C@H](CO)NC(=O)[C@@H](NC(=O)[C@](C)(Cc1ccccc1F)NC(=O)[C@@H](NC(=O)CNC(=O)[C@H](CCC(=O)O)NC(=O)C(C)(C)NC(=O)[C@@H](N)Cc1ccc(O)cc1)[C@@H](C)O)[C@@H](C)O)[C@@H](C)CC)[C@@H](C)CC)C(=O)N[C@@H](CCC(=O)O)C(=O)NCC(=O)NCC(=O)N1CCC[C@H]1C(=O)N[C@@H](CO)C(=O)N[C@@H](CO)C(=O)NCC(=O)N[C@@H](C)C(=O)N1CCC[C@H]1C(=O)N1CCC[C@H]1C(=O)N1CCC[C@H]1C(=O)N[C@@H](CO)C(=O)N[C@@H](CCCCNC(=O)COCCOCCNC(=O)COCCOCCNC(=O)CC[C@H](NC(=O)CCCc1ccc(C(C)(C)C)cc1)C(=O)O)C(N)=O [Example 135] | 91.2 ± 4.78% | 92.3 ± 2.64% | 0.0184 nM | 0.936 nM |  | > 9950 nM | > 9950 nM | 0.0609 nM | 0.271 nM |
